The text below walks through data of US20120041036A1, “SUBSTITUTED ACYLGUANIDINE DERIVATIVES (AS AMENDED)” (priority 2009, published 2012).

Structures can show the parent of a compound that is named as a salt.

T1 sequence (P47898 whole entry): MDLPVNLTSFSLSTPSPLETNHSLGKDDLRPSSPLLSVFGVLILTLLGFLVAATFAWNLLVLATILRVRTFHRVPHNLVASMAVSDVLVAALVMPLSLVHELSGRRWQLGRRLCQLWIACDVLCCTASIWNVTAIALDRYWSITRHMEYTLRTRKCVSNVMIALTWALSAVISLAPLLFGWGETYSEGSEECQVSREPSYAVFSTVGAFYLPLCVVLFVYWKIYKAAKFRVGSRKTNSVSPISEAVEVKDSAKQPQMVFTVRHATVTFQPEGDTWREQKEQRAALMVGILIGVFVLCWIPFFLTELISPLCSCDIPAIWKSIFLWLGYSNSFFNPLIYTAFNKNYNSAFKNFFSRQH

The first assay concerns the target T1, human 5-HT5A receptor (Homo sapiens, UniProt P47898).
T1 construct: expressed in transfected cells; membrane preparation
The assay is described as follows: Test on a human 5-HT5A receptor binding inhibition ([3H]5-CT, membrane from HEK293 cells). The note with it: human 5-HT5A receptor membrane; read-out: Kd value of [3H]5-CT determined from Scatchard analysis. On the procedure: The ORF (open reading frame; protein coding region) of a human 5-HT5A receptor (Genbank AF498985) was cloned from a human hippocampus cDNA library, and then inserted into a pCR2.1 vector (Invitrogen), and Escherichia coli containing the plasmid was cultured in a large amount. Next, the full-length cDNA sequence of the human 5-HT5A receptor was analyzed, and recombined into a pCDNA3.1 vector (Invitrogen) as an expression vector and cultured in a large amount. HEK293 established cells (ATCC) derived from the human fetal kidney were seeded, the expression plasmid (1 μg) obtained above were added thereto with LIPOFECTAMINE 2000 (Invitrogen; 2 μl), the gene was transfected into HEK293 cells, and the expression cells were screened with a drug-resistant marker, Geneticin (G418 sulfate 500 μg/ml; Kanto Chemical Co., Inc.). Thus prepared recombinant cells which expressed the gene were cultured in a medium containing D-MEM (Dulbecco's modified eagle medium, Sigma), 10% FCS (Fetal calf serum: fetal bovine serum), 1% Pc./Sm (Penicillin/Streptomycin, Invitrogen), and 500 μg/ml G418 for 3 days. These experimental operations followed a manual for gene operation experiment and an instruction appended in a reagent, and the like, such as a known method (Sambrook, J. et al, Molecular Cloning—A Laboratory Manual”, Cold Spring Harbor laboratory, NY, 1989).
HEK293 cells for forced expressions of a human 5-HT5A receptor were cultured in a F500 plate, and scraped with a scraper. After centrifugation, the precipitate was collected, and an incubation buffer (50 mM Tris (HCl) (pH 7.4), 10 mM MgSO4, and 0.5 mM EDTA (ethylenediamine tetraacetic acid)) was added thereto. After homogenization, it was further centrifuged, and the incubation buffer was added to the precipitate, followed by thoroughly suspending. The operation was repeated, and protein concentration was measured, thereby completing preparation of the membrane.
A solution of the compound to be tested and 100 μM 5-CT (5-carboxamidetriptamine) in DMSO was added to a 96-well plate at 2 μl/well, suspended in an incubation buffer, and a membrane from HEK293 cells for forced expressions of a human 5-HT5A receptor prepared at 200 μg/ml was added at 100 μl/well. After incubation at room temperature for 15 minutes, a [^3H]5-CT solution (2 nM [^3H]5-CT, incubation buffer) was added thereto at 100 μl/well.
Separately, 100 μl of the solution was distributed into a liquid scintillation vial, and 2 ml of Aquasol II (registered trademark) was added thereto, followed by stirring. Then, radioactivity was measured by a liquid scintillation counter. It was incubated at 37° C. for 60 minutes. The reaction mixture was sucked into 96-well GF/C filter plate that had been pre-treated with 0.2% polyethyleneimine, and washed six times with an ice-cooled, 50 mM Tris (pH 7.5) buffer. The GF/C filter plate was dried.
Microscint TMPS (registered trademark) was added thereto at 40 μl/well. Radioactivity remaining on the GF/C filter plate was measured by a top counter.
The [^3H]5-CT binding inhibiting activity by the compound to be tested in each experiment was determined as an IC50 value with a radioactivity upon addition of DMSO alone being 0% inhibition, and a radioactivity upon addition of 1 μM 5-CT being 100% inhibition. Separately, Ki values were calculated from the Kd value of the [^3H]5-CT determined from Scatchard analysis, by the following equation.
Regarding `NCCc1c[nH]c2ccc(C(N)=O)cc12` [[^3H]5-CT, 5-carboxamidetriptamine, reference compound], the Kd is 0.00495 µM.

The assay is the same for the next values; noted with them: membrane from HEK293 cells expressing human 5-HT5A receptor; Ki calculated from IC50 and Kd of [3H]5-CT.
For `CS(=O)(=O)c1ccc2ccc(C(=O)N=C(N)N)cc2c1-c1c(F)cc(F)cc1F` [Example 13], the Ki is 0.03 to 0.3 µM. Consider `N#Cc1ccc2ccc(C(=O)N=C(N)N)cc2c1C1CC1` [Example 21], for which the inhibition constant Ki was 0.03 to 0.3 µM. As to `N#Cc1ccc2ccc(C(=O)N=C(N)N)cc2c1-c1ccc(F)cc1F` [Example 6], the inhibition constant Ki is 0.001 to 0.03 µM. Same read-out and setting: next, `N#Cc1ccc2ccc(C(=O)N=C(N)N)cc2c1-c1ccc(F)cc1` [Example 14]: 0.001 to 0.03 µM; `N#Cc1ccc2ccc(C(=O)N=C(N)N)cc2c1-c1ccccc1F` [Example 10]: 0.001 to 0.03 µM; `N#Cc1ccc2ccc(C(=O)N=C(N)N)cc2c1-c1c(F)cncc1F` [Example 18]: 0.001 to 0.03 µM. Same read-out and setting: next, `CSc1ccc2ccc(C(=O)N=C(N)N)cc2c1-c1c(F)cc(F)cc1F` [Example 12]: 0.001 to 0.03 µM; `N#Cc1ccc2ccc(C(=O)N=C(N)N)cc2c1C1=CCOCC1` [Example 16]: 0.03 to 0.3 µM; `N#Cc1ccc2ccc(C(=O)N=C(N)N)cc2c1-c1ccccc1Cl` [Example 9]: 0.001 to 0.03 µM. Take `COc1cccc(F)c1-c1c(C#N)ccc2ccc(C(=O)N=C(N)N)cc12` [Example 8]: the Ki is 0.001 to 0.03 µM. Regarding `COc1cc(C#N)ccc1-c1c(C#N)ccc2ccc(C(=O)N=C(N)N)cc12` [Example 15], the Ki is 0.03 to 0.3 µM. For the compound `N#Cc1ccc2ccc(C(=O)N=C(N)N)cc2c1-c1c(F)cc(F)cc1F` [Example 2], the Ki was 0.001 to 0.03 µM. Regarding `N#Cc1cc(F)c(-c2c(F)cc(F)cc2F)c2cc(C(=O)N=C(N)N)ccc12` [Example 5], the Ki was 0.001 to 0.03 µM. For `N#Cc1ccc2ccc(C(=O)N=C(N)N)cc2c1-c1c(F)cccc1F` [Example 7], the Ki was 0.001 to 0.03 µM. Consider `N#Cc1ccc2ccc(C(=O)N=C(N)N)cc2c1-c1c(F)cccc1Cl` [Example 1, 8-(2-chloro-6-fluorophenyl)-7-cyano-N-(diaminomethylene)-2-naphthamide hydrochloride], for which the inhibition constant (Ki) is 0.0043 µM.

As to `N#Cc1ccc2ccc(C(=O)N=C(N)N)cc2c1-c1ccncc1Cl` [Example 3], the inhibition constant (Ki) was 0.03 to 0.3 µM. Consider `N#Cc1cc(F)c(-c2ccncc2)c2cc(C(=O)N=C(N)N)ccc12` [Example 19], for which the Ki was 0.03 to 0.3 µM.

In the case of `N#Cc1ccc2ccc(C(=O)N=C(N)N)cc2c1-c1ccncc1F` [Example 4], the Ki was 0.03 to 0.3 µM.

On to `N#Cc1ccc2ccc(C(=O)N=C(N)N)cc2c1-c1ccccc1` [Example 20], for which the inhibitory constant (Ki) is 0.001 to 0.03 µM. With `N#Cc1ccc2ccc(C(=O)N=C(N)N)cc2c1-c1c(F)cc(CO)cc1F` [Example 17], the inhibitory constant (Ki) is 0.03 to 0.3 µM.

Another assay relates to hyperactivity caused by MK-801. The assay is described as follows: Improvement effect on increase in motion induced by methamphetamine or MK-801 in mice. The class given is in vivo. The note with it: male ICR mouse; oral dose 0.03 mg/kg; MK-801 0.3 mg/kg i.p.; motion measured 60 minutes; significance P<0.05. On the procedure:
The improvement effect of compound of formula (I) was evaluated by measuring the quantity of motion by IR irradiation when a compound was administered to a mouse in which hyperactivity was caused by methamphetamine (hereinafter, simply referred to as “MAP”) or MK-801, known as an animal model of schizophrenia.
An animal was taken out of a breeding cage, orally administered with a compound to be tested, and then placed into a cage for breeding. After 30 minutes, the animal was put into a cage for measurement, and the motion with the compound to be tested alone was measured. Further, after 30 to 90 minutes, the animal was taken out, and intraperitoneally administered with a drug for increasing the motion (MAP; 1 mg/kg or MK-801; 0.3 mg/kg, dissolved in a physiological saline, respectively). Then, the motion for a certain period of time (60 minutes) was measured by using a motion measurement device (CompACT AMS from Muromachi Kikai Co., Ltd.) by means of an infrared sensor.
For a normal mouse (a mouse administered with physiological saline) and a mouse administered with a drug for increasing the motion, a Student's T test was performed for evaluation for each interval. For a group administered with the compound to be tested, an assay was performed using a solvent (vehicle) group and a Dunnett's T test. […]
Regarding `N#Cc1ccc2ccc(C(=O)N=C(N)N)cc2c1-c1c(F)cccc1Cl` [Example 1, 8-(2-chloro-6-fluorophenyl)-7-cyano-N-(diaminomethylene)-2-naphthamide hydrochloride], the “inhibition of hyperactivity (motion) caused by MK-801” value is given as “significantly inhibited”.

A word on the Kd: it is the free concentration of one partner at which half of the binding sites on the other are occupied at equilibrium, for simple one-to-one binding. As usually defined, the Ki is a dissociation constant, usually derived from enzyme kinetics or from competition with a known ligand.
